Common to all, as to format: cell-based
The test system of one assay is Alternaria alternata. The assay can be described thus: Fungicidal activity in vitro: mycelial growth on Cristomalt agar. The conditions noted are these: for Inhibition grades: MIC expressed on the scale of Table 2; for MIC: Alternaria alternata, read-out: MIC (content giving complete inhibition of mycelial growth). How it is done: (§1) The Cristomalt medium used for the evaluations of the fungicidal activities comprises 0.1% of Cristomalt (malt extract) and 0.2% of agar.
(§2) This culture medium is, after sterilization, brought to 55° C. The terpene compound tested is then introduced in the pure form into the culture medium under warm conditions. Immediately after agitating, the medium, enriched with the terpene product, is poured into Petri dishes (diameter 9 cm, filled with 20 ml of medium). The agar-comprising medium solidifies on cooling. The Petri dishes are then inoculated with plugs, with a diameter of 6 mm, withdrawn from the edge of a culture of the tested fungus, which culture is obtained on Cristomalt medium.
(§3) Inoculation is carried out at 22° C.
(§4) The mycelial growth was determined periodically (5 to 15 days, according to the species of fungus).
(§5) The results are expressed in Table 3 below in terms of MIC, which is the content (in μg/ml) which makes it possible to obtain complete inhibition of mycelial growth.
(§6) In f act, each experiment was carried out several times, so that, for each terpene and for each species of fungus, a minimum value and a maximum value were obtained.

The test system of a further assay is Botrytis cinerea. Described as above. To be noted: for Inhibition grades: MIC expressed on the scale of Table 2; for MIC: Botrytis cinerea, read-out: MIC (content giving complete inhibition of mycelial growth). The procedure:
as §1, §2, §3, §4, §5, §6

Assay [1] deals with Phlyctaena vagabonda (“Gloeosporium”). The description is as above. To be noted: for Inhibition grades: MIC expressed on the scale of Table 2; for MIC: read-out: MIC (content giving complete inhibition of mycelial growth). The procedure: as §1, §2, §3, §4, §5, §6
A further assay concerns Phytophtora parasitica. Described as above. The conditions noted are these: for Inhibition grades: MIC expressed on the scale of Table 2; for MIC: read-out: MIC (content giving complete inhibition of mycelial growth). The procedure: as §1, §2, §3, §4, §5, §6
In another assay the test system is Gliocladium roseum. The assay is described as above. To be noted: for MIC: Clonostachys rosea, read-out: MIC (content giving complete inhibition of mycelial growth); for Inhibition grades: MIC expressed on the scale of Table 2. The procedure: as §1, §2, §3, §4, §5, §6
In the next assay the test system is Penicillium digitatum. The description is as above. The conditions noted are these: for Inhibition grades: MIC expressed on the scale of Table 2; for MIC: Penicillium digitatum, read-out: MIC (content giving complete inhibition of mycelial growth). How it is done:
as §1, §2, §3, §4, §5, §6

In the next assay the test system is Fusarium oxysporum. Described as above. The conditions noted are these: for MIC: Fusarium oxysporum, read-out: MIC (content giving complete inhibition of mycelial growth); for Inhibition grades: OF, MIC expressed on the scale of Table 2. How it is done:
as §1, §2, §3, §4, §5, §6

The test system of another assay is Penicillium expansum. The description is as above. The conditions noted are these: for Inhibition grades: MIC expressed on the scale of Table 2; for MIC: Penicillium expansum, read-out: MIC (content giving complete inhibition of mycelial growth). The procedure: as §1, §2, §3, §4, §5, §6
The test system of a further assay is Geocrichum candidum. The assay is described as above. The conditions noted are these: for Inhibition grades: MIC expressed on the scale of Table 2; for MIC: read-out: MIC (content giving complete inhibition of mycelial growth). The procedure:
as §1, §2, §3, §4, §5, §6

Another assay has as its system spores. The experiment in a line: Germination of the spores in vitro, summary over the fungi tested. To be noted: summary of Tables 4 to 6. How it is done: The activity of eugenol and of isoeugenol on the germination of the spores was evaluated in vitro and compared with that of other terpenes.
The procedure of Example 4 is used to do this, except that the concentration of eugenol and of isoeugenol was set at x μg/ml in the culture media used and that 50 μl of a suspension of spores, adjusted to 100,000 spores/ml, are deposited in each Petri dish.
The same experiment was carried out starting with a terpene-free culture medium (control test).
The results obtained for 3 different concentrations of terpenes in the culture medium, namely 40 μg/ml, 80 μg/ml and 1280 μg/ml, are listed in Tables 4, 5 and 6.
A concentration of 40 μg/ml is sufficient to inhibit the germination of the spores.

Setting [2] is: AA, min-max range of several experiments, 22° C.
Setting [3] is: BC, min-max range of several experiments, 22° C.
[4] abbreviates: PV, min-max range of several experiments, 22° C.
The mark [5] stands for this setting: PhP, min-max range of several experiments, 22° C.
Setting [6] is: GR, min-max range of several experiments, 22° C.
The mark [7] stands for this setting: PD, min-max range of several experiments, 22° C.
Where [8] appears, read: FO, min-max range of several experiments, 22° C.
[9] abbreviates: PE, min-max range of several experiments, 22° C.
The mark [10] stands for this setting: GC, min-max range of several experiments, 22° C.

Converted amounts (≈) assume the structure as drawn. Read-outs that look alike come from different tables or passages of the source.

As usually defined, the MIC is the smallest concentration in the dilution series that meets the test's criterion for growth inhibition. Regarding `CC=Cc1ccc(O)c(OC)c1` [ISOEUGENOL, isoeugenol], the Inhibition grades (with Alternaria alternata (AA); in the assay with Botrytis cinerea (BC); in assay [1] (PV); in the assay on Phytophtora parasitica (PhP); in the assay with Gliocladium roseum (GR); with Penicillium digitatum (PD)) was 7 (20-40) in each case. Further, the Inhibition grades is 7 (20-40) in the assay with Fusarium oxysporum, 7 (20-40) in the assay with Penicillium expansum (PE) and 8 (10-20) in the assay with Geocrichum candidum (GC). Also, the MIC (in the assay on Alternaria alternata (setting [2]); in the assay with Botrytis cinerea (setting [3]); in [1] (setting [4]); with Phytophtora parasitica (setting [5]); with Gliocladium roseum (setting [6]); in the assay on Penicillium digitatum (setting [7])) was 20 to 40 µg/mL (≈ 122 to 244 µM) each time. In addition, the MIC in the assay on Fusarium oxysporum (setting [8]) lay within 20 to 40 µg/mL (≈ 122 to 244 µM); with Penicillium expansum (setting [9]) it was 20 to 40 µg/mL (≈ 122 to 244 µM); in the assay on Geocrichum candidum (setting [10]), 10 to 20 µg/mL (≈ 60.9 to 122 µM). Further, the “concentration sufficient to inhibit the germination of the spores” value with spores was 40 µg/mL.

In the case of `C=CCc1ccc(O)c(OC)c1` [EUGENOL, eugenol], the Inhibition grades was 7 (20-40) in the assay on Alternaria alternata (AA); 7 (20-40) in the assay on Botrytis cinerea (BC); 6 (40-80) in [1] (PV); 7 (20-40) in the assay with Phytophtora parasitica (PhP); 7 (20-40) in the assay on Gliocladium roseum (GR); 7 (20-40) in the assay with Penicillium digitatum (PD). Also, the Inhibition grades with Fusarium oxysporum is recorded as 7 (20-40); with Penicillium expansum (PE), 7 (20-40); in the assay on Geocrichum candidum (GC), 8 (10-20). For the same molecule, the MIC is 20 to 40 µg/mL (≈ 122 to 244 µM) with Alternaria alternata (setting [2]); 20 to 40 µg/mL (≈ 122 to 244 µM) in the assay on Botrytis cinerea (setting [3]); 40 to 80 µg/mL (≈ 244 to 487 µM) in [1] (setting [4]); 20 to 40 µg/mL (≈ 122 to 244 µM) in the assay on Phytophtora parasitica (setting [5]); 20 to 40 µg/mL (≈ 122 to 244 µM) in the assay with Gliocladium roseum (setting [6]); 20 to 40 µg/mL (≈ 122 to 244 µM) with Penicillium digitatum (setting [7]). For the same molecule, the figures for the MIC in the assay with Fusarium oxysporum (setting [8]), in the assay on Penicillium expansum (setting [9]) and with Geocrichum candidum (setting [10]) were 20 to 40 µg/mL (≈ 122 to 244 µM), 20 to 40 µg/mL (≈ 122 to 244 µM) and 10 to 20 µg/mL (≈ 60.9 to 122 µM), respectively. Further, in the assay with spores, the “concentration sufficient to inhibit the germination of the spores” value turned out to be 40 µg/mL.

For the molecule `C=CCc1ccc2c(c1)OCO2` [SAFROLE, safrole], the Inhibition grades in the assay with Alternaria alternata (AA) is listed as 5 (80-160); in the assay with Botrytis cinerea (BC) it was 5 (80-160); in assay [1] (PV) it was 5 (80-160); in the assay on Phytophtora parasitica (PhP), 6 (40-80); with Gliocladium roseum (GR), 6 (40-80); with Penicillium digitatum (PD), 4 (160-320). For the same molecule, the Inhibition grades with Fusarium oxysporum is reported as 5 (80-160); with Penicillium expansum (PE), 2 (640-1280); in the assay on Geocrichum candidum (GC), 4 (160-320). In addition, the MIC is 80 to 160 µg/mL (≈ 493 to 987 µM) with Alternaria alternata; 80 to 160 µg/mL (≈ 493 to 987 µM) in the assay with Botrytis cinerea; 80 to 160 µg/mL (≈ 493 to 987 µM) in assay [1]; 40 to 80 µg/mL (≈ 247 to 493 µM) with Phytophtora parasitica; 40 to 80 µg/mL (≈ 247 to 493 µM) in the assay on Gliocladium roseum; 160 to 230 µg/mL (≈ 987 to 1420 µM) in the assay on Penicillium digitatum. Also, the figures for the MIC in the assay with Fusarium oxysporum, in the assay with Penicillium expansum and in the assay on Geocrichum candidum were 80 to 160 µg/mL (≈ 493 to 987 µM), 640 to 1280 µg/mL (≈ 3950 to 7890 µM) and 160 to 230 µg/mL (≈ 987 to 1420 µM), respectively.

For the molecule `CC12CCC(CC1)C(C)(C)O2` [EUCALYPTOL, eucalyptol], the Inhibition grades in the assay on Alternaria alternata (AA) is listed as 1 (>1280); with Botrytis cinerea (BC), 2 (640-1280); in [1] (PV) it was 4 (160-320); in the assay with Phytophtora parasitica (PhP), 3 (320-640); in the assay with Gliocladium roseum (GR), 3 (320-640); in the assay on Penicillium digitatum (PD), 1 (>1280). In addition, the Inhibition grades is on record as 2 (640-1280) with Fusarium oxysporum, 1 (>1280) in the assay with Penicillium expansum (PE) and 3 (320-640) in the assay on Geocrichum candidum (GC). The MIC in the assay with Alternaria alternata (setting [2]) was more than 1280 µg/mL; in the assay on Botrytis cinerea (setting [3]) it was 640 to 1280 µg/mL (≈ 4150 to 8300 µM); in assay [1] (setting [4]), 160 to 320 µg/mL (≈ 1040 to 2070 µM); in the assay with Phytophtora parasitica (setting [5]) it was 320 to 640 µg/mL (≈ 2070 to 4150 µM); in the assay on Gliocladium roseum (setting [6]), 320 to 640 µg/mL (≈ 2070 to 4150 µM); in the assay on Penicillium digitatum (setting [7]), more than 1280 µg/mL. Also, the values for the MIC in the assay on Fusarium oxysporum (setting [8]), in the assay on Penicillium expansum (setting [9]) and with Geocrichum candidum (setting [10]) were 640 to 1280 µg/mL (≈ 4150 to 8300 µM), more than 1280 µg/mL and 320 to 640 µg/mL (≈ 2070 to 4150 µM), respectively.

In the case of `C=C(C)C1CC=C(C)C(=O)C1` (centres unmarked) [CARVONE, carvone], the Inhibition grades in the assay on Alternaria alternata (AA) is listed as 6 (40-80); in the assay on Botrytis cinerea (BC), 7 (20-40); in [1] (PV) it was 5 (80-160); in the assay on Phytophtora parasitica (PhP), 6 (40-80); in the assay with Gliocladium roseum (GR), 6 (40-80); with Penicillium digitatum (PD), 6 (40-80). For the same molecule, the Inhibition grades in the assay with Fusarium oxysporum was 6 (40-80); in the assay with Penicillium expansum (PE), 5 (80-160); in the assay on Geocrichum candidum (GC) it was 5 (80-160). The MIC in the assay with Alternaria alternata (setting [2]) was 40 to 80 µg/mL (≈ 266 to 533 µM); in the assay on Botrytis cinerea (setting [3]) it was 20 to 40 µg/mL (≈ 133 to 266 µM); in assay [1] (setting [4]), 80 to 160 µg/mL (≈ 533 to 1070 µM); in the assay on Phytophtora parasitica (setting [5]) it was 40 to 80 µg/mL (≈ 266 to 533 µM); in the assay with Gliocladium roseum (setting [6]), 40 to 80 µg/mL (≈ 266 to 533 µM); in the assay with Penicillium digitatum (setting [7]), 40 to 80 µg/mL (≈ 266 to 533 µM). The MIC in the assay with Fusarium oxysporum (setting [8]) lay in the range of 40 to 80 µg/mL (≈ 266 to 533 µM); with Penicillium expansum (setting [9]) it was 80 to 160 µg/mL (≈ 533 to 1070 µM); with Geocrichum candidum (setting [10]), 80 to 160 µg/mL (≈ 533 to 1070 µM).

Values taken from patent US6723364B1, “Fog treatment method using a liquid composition for treating fruits and vegetables and implementing device” (Xeda International, priority 1998, dated 2004).
